Laboratory results taken from US20240009122A1, “Small Molecule Formulation” (Dialectic Therapeutics, Inc., priority 2020, published 2024).

Experiment: Solubility of Compound 1 (statement)
Assay type: physicochemical
From the text: While Compound 1 is an example of a small molecule with a number of polar functional groups. […] These organic polar solvents, however, are not typically pharmaceutically acceptable for use in drug formulation.

- Solubility in organic polar solvents: sufficiently soluble
- Solubility in water or water based solvent mixtures: not sufficiently soluble
SMILES: Cc1ncsc1-c1ccc([C@H](C)NC(=O)[C@@H]2C[C@@H](O)CC2C(=O)[C@@H](NC(=O)CCCCCC(=O)N2CCN(CC[C@H](CSc3ccccc3)Nc3ccc(S(=O)(=O)NC(=O)c4ccc(N5CCN(CC6=C(c7ccc(Cl)cc7)CCC(C)(C)C6)CC5)cc4)cc3S(=O)(=O)C(F)(F)F)CC2)C(C)(C)C)cc1 (some centres unmarked) [Compound 1]
